Assays:
HCoV-OC43 gRNA and sgRNA = format: binding
gRNA of HCoV-OC43 = format: binding

SLTM: host protein, UniProt Q9NWH9
target (unweighted spectral count, OC43 Probe II capture) (HCoV-OC43 gRNA and sgRNA; 36 hpi, type n_36_v, tested against no-probe control, FDR<10%): 6 | target (unweighted spectral count, OC43 Probe II) (HCoV-OC43 gRNA and sgRNA; type n_48_v, 48 hpi, OC43 Probe II capture on infected cells): 8 | background (unweighted spectral count, no-probe control) (HCoV-OC43 gRNA and sgRNA; type n_48_v, 48 hpi, no-probe control on infected cells): 1 | target (spectral count) (gRNA of HCoV-OC43; type g_36_m, HCoV-OC43-infected HCT-8 cells, 36 hpi, Probe I): 10 | background (spectral count) (gRNA of HCoV-OC43; type g_36_m, uninfected-probe control, 36 hpi, Probe I): 1 | target (spectral count, OC43 Probe I RNP capture) (gRNA of HCoV-OC43; type n_48_v: 48 hours post-infection, infected cells, OC43 Probe I, unweighted spectral count): 11 | background (spectral count, no-probe control) (gRNA of HCoV-OC43; type n_48_v: 48 hours post-infection, no-probe control on infected cells): 1
